# Reference: US11708376B2 (VIRGINIA TECH INTELLECTUAL PROPERTIES, INC., priority 2018, dated 2023)
# Tests used:
# [1] = system: Male C57BL/6J mice on western diet; assay: Diet induced obesity mouse study; assay type: in vivo; settings: WD containing 2-21, ~40 mg/kg/day
# Excerpt: FIG. 1. Diet induced obesity reversal data, for mice given a regular chow diet, a Western diet, or a Western diet plus compound 2-21. FIG. 1A, Body mass versus time; FIG. 1B, fat mass (measured by EchoMRI) versus time; FIG. 1C, food intake (last 14 days) versus time.
# Male C57BL/6J mice aged 3 months were assigned to either normal chow diet (Chow, n=5) or western diet (WD, n=10) for 28 days. After 28 days half of the WD group were switched to WD containing compound 2-21 at a concentration resulting in consumption of ˜40 mg/kg/day 1-112 (2-21 40 mpk). Body mass (A), fat mass (measured by EchoMRI (B)), and food intake (C. for the final 14 days) were recorded as indicated.
# [2] = system: whole cells (NMuLi, C2Cl2, and L6 cells, isolated cardiomyocytes, human primary fibroblasts); assay: Oxygen consumption rate (OCR) in whole cells, Seahorse XF-24 Flux Analyzer; assay type: cell-based; settings: cell type for Table 1 not stated, read-out: OCR Activity (increase in OCR), binned EC50
# Description: Biological activities of the compounds synthesized is determined by determining increase in oxygen consumption rate (OCR).
# Oxygen consumption rate (OCR) in whole cells is measured in general accordance with the method of Kenwood B M et al. (Mol. Met. (2014) 3: 114-123).
# OCR is measured using a Seahorse XF-24 Flux Analyzer (Seahorse Biosciences, North Billerica, Mass.). NMuLi, C2Cl2, and L6 cells are seeded in a Seahorse 24-well tissue culture plate at a density of 3.5×10^4 cells/well, isolated cardiomyocytes at a density of 4×10^4 cells/well, and human primary fibroblasts at a density of 1.1×10^4 cells/well. The cells are then allowed to adhere for 24 h. Prior to the assay, the media is changed to unbuffered DMEM containing pyruvate and glutamine (Gibco #12800-017, pH=7.4 at 37° C.) and the cells are equilibrated for 30 mins at 37° C. Compounds are injected during the assay and OCR is measured using 2 min measurement periods.
# 2-3 wells are used per condition and averaged over three plates (n=6-9). Statistical significance is determined by two-way ANOVA with Bonfenoni's posttest.
# Activities are reported as binned EC50 values: A=5 μM or less; B=>5 to 20 μM; C=over 20 μM; NA=no effect.
SMILES,EC50 [2],further results
"COc1nc2[nH]c(C(F)(F)F)nc2nc1Nc1ccc(OC(F)(F)F)cc1F [Compound 2-21, 6-methoxy-N-(2-fluoro-4-(trifluoromethoxy)phenyl)-2-(trifluoromethyl)-1H-imidazo[4,5-b]pyrazin-5-amine]",≤ 5 µM,Body mass ([1]; after 28 days of WD): lost body weight; Fat mass (measured by EchoMRI) ([1]; after 28 days of WD): lost body weight and fat mass; Food intake ([1]; final 14 days): without a significant change in food intake
"FC(F)(F)c1ccc(Nc2nc3[nH]c(C(F)(F)F)nc3nc2Oc2ccc(C(F)(F)F)cc2)cc1 [Compound 2-47, 2-(trifluoromethyl)-5-(4-(trifluoromethyl)phenoxy)-N-(4-(trifluoromethyl)phenyl)-1H-imidazo[4,5-b]pyrazin-6-amine]",≤ 5 µM,–
"COc1nc2nc(C(F)(F)F)[nH]c2nc1N(C)c1ccc(C(F)(F)F)cc1 [Compound 2-49, 5-methoxy-N-methyl-2-(trifluoromethyl)-N-(4-(trifluoromethyl)phenyl)-1H-imidazo[4,5-b]pyrazin-6-amine]",≤ 5 µM,–
"Oc1nc2[nH]c(C(F)(F)F)nc2nc1Nc1cccc(C(F)(F)F)c1F [Compound 2-54, 5-((2-fluoro-3-(trifluoromethyl)phenyl)amino)-2-(trifluoromethyl)-1H-imidazo[4,5-b]pyrazin-6-ol]",> 20 µM,–
"Oc1nc2[nH]c(C(F)(F)F)nc2nc1Nc1ccc(C(F)(F)F)cc1 [Compound 2-55, 5-((4-(trifluoromethyl)phenyl)amino)-2-(trifluoromethyl)-1H-imidazo[4,5-b]pyrazin-6-ol]",> 20 µM,–
"COc1nc2[nH]c(-c3ccccc3)nc2nc1Nc1ccc(OC(F)(F)F)cc1 [Compound 2-60, 6-methoxy-2-phenyl-N-(4-(trifluoromethoxy)phenyl)-1H-imidazo[4,5-b]pyrazin-5-amine]",> 20 µM,–
"COc1nc2nc(C(F)(F)F)[nH]c2cc1Nc1ccccc1F [Compound 2-61, N-(2-fluorophenyl)-5-methoxy-2-(trifluoromethyl)-1H-imidazo[4,5-b]pyridin-6-amine]",> 20 µM,–
"COc1nc2nc(C(F)(F)F)[nH]c2cc1Nc1ccc(OC(F)(F)F)cc1 [Compound 2-62, 5-methoxy-N-(4-(trifluoromethoxy)phenyl)-2-(trifluoromethyl)-1H-imidazo[4,5-b]pyridin-6-amine]",5 to 20 µM,–
"COc1nc2nc(C(F)(F)F)[nH]c2cc1Nc1cccc(OC(F)(F)F)c1 [Compound 2-63, 5-methoxy-N-(3-(trifluoromethoxy)phenyl)-2-(trifluoromethyl)-1H-imidazo[4,5-b]pyridin-6-amine]",> 20 µM,–
"COc1nc2nc(C(F)(F)F)[nH]c2cc1Nc1ccc(C(F)(F)F)cc1 [Compound 2-64, 5-methoxy-2-(trifluoromethyl)-N-(4-(trifluoromethyl)phenyl)-1H-imidazo[4,5-b]pyridin-6-amine]",5 to 20 µM,–
"COc1nc2nc(C(F)(F)F)[nH]c2cc1Nc1cccc(C(F)(F)F)c1 [Compound 2-65, 5-methoxy-2-(trifluoromethyl)-N-(3-(trifluoromethyl)phenyl)-1H-imidazo[4,5-b]pyridin-6-amine]",> 20 µM,–
"COc1nc2nc(C(F)(F)F)[nH]c2cc1Nc1ccc(OC(F)(F)F)cc1F [Compound 2-66, N-(2-fluoro-4-(trifluoromethoxy)phenyl)-5-methoxy-2-(trifluoromethyl)-1H-imidazo[4,5-b]pyridin-6-amine]",≤ 5 µM,–
"COc1nc2[nH]c(C(F)(F)F)nc2cc1Nc1cccc(F)c1 [Compound 2-67, N-(3-fluorophenyl)-5-methoxy-2-(trifluoromethyl)-3H-imidazo[4,5-b]pyridin-6-amine]",5 to 20 µM,–
"COc1nc2[nH]c(C(F)(F)F)nc2cc1Nc1cccc(F)c1F [Compound 2-68, N-(2,3-Difluorophenyl)-5-methoxy-2-(trifluoromethyl)-3H-imidazo[4,5-b]pyridin-6-amine]",5 to 20 µM,–
"COc1ccc(Nc2cc3nc(C(F)(F)F)[nH]c3nc2OC)cc1 [Compound 2-69, 5-methoxy-N-(4-methoxyphenyl)-2-(trifluoromethyl)-3H-imidazo[4,5-b]pyridin-6-amine]",≤ 5 µM,–
"COc1nc2[nH]c(C(F)(F)F)nc2cc1Nc1cccc(C(C)(C)C)c1 [Compound 2-70, N-(3-(tert-butyl)phenyl)-5-methoxy-2-(trifluoromethyl)-3H-imidazo[4,5-b]pyridin-6-amine]",> 20 µM,–
"COc1nc2[nH]c(C(F)(F)F)nc2cc1Nc1cc(C(F)(F)F)cc(C(F)(F)F)c1 [Compound 2-72, N-(3,5-bis(trifluoromethyl)phenyl)-5-methoxy-2-(trifluoromethyl)-3H-imidazo[4,5-b]pyridin-6-amine]",5 to 20 µM,–
"COc1nc2[nH]c(C(F)(F)F)nc2cc1Nc1ccc(C)cc1 [Compound 2-73, 5-methoxy-N-(p-tolyl)-2-(trifluoromethyl)-3H-imidazo[4,5-b]pyridin-6-amine]",> 20 µM,–
"COc1nc2[nH]c(C(F)(F)F)nc2cc1Nc1ccc(OC(F)(F)F)cc1C [Compound 2-74, 5-methoxy-N-(2-methyl-4-(trifluoromethoxy)phenyl)-2-(trifluoromethyl)-3H-imidazo[4,5-b]pyridin-6-amine]",≤ 5 µM,–
"COc1nc2nc(C(F)(F)F)[nH]c2cc1Nc1ccc(-c2ccc(C(F)(F)F)nc2)cc1 [Compound 2-75, 5-methoxy-2-(trifluoromethyl)-N-(4-(6-(trifluoromethyl)pyridin-3-yl)phenyl)-1H-imidazo[4,5-b]pyridin-6-amine]",5 to 20 µM,–
"Oc1nc2nc(-c3cccc(F)c3)oc2nc1Nc1ccccc1F [Compound 4-3, 2-(3-fluorophenyl)-6-((2-fluorophenyl)amino)oxazolo[4,5-b]pyrazin-5-ol]",5 to 20 µM,–
"Oc1nc2nc(-c3cccc(F)c3)oc2nc1Nc1cc(C(F)(F)F)cc(C(F)(F)F)c1 [Compound 4-5, 6-((3,5-bis(trifluoromethyl)phenyl)amino)-2-(3-fluorophenyl)oxazolo[4,5-b]pyrazin-5-ol]",5 to 20 µM,–
